Experimental data reported in article PMC12555108, “In‐vitro Assessment of BCRP‐Mediated Efflux of Antiseizure Medications in Human Blood‐Brain Barrier Cell Model” (Journal of Biochemical and Molecular Toxicology, 2025).

Assays:
BCRP [1] = target: T1, BCRP (Homo sapiens, UniProt Q9UNQ0); assay: competitive substrate efflux assay (BODIPY-prazosin accumulation) in hCMEC/D3 cells; format: cell-based
T1 sequence (Q9UNQ0 1-655): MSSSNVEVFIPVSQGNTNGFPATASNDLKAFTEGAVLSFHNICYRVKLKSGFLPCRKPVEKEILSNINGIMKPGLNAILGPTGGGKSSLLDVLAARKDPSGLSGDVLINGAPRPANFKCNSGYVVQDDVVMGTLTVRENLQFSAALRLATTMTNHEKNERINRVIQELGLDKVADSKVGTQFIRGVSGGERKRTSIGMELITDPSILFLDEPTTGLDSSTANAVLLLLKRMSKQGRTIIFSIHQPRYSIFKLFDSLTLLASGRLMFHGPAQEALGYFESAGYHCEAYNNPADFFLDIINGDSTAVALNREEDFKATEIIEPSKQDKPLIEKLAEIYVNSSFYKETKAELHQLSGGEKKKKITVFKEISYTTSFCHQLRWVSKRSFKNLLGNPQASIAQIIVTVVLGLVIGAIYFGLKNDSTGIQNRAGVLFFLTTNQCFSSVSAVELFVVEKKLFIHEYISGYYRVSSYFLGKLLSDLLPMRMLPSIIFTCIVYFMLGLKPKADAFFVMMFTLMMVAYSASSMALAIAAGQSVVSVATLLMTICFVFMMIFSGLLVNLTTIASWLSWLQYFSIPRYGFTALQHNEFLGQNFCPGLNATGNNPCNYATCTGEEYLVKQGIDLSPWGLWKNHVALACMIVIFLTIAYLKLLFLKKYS
Protocol: The potential of ASMs to compete with a known fluorescent substrate of BCRP, BPZ in hCMEC/D3 cells was examined using a competitive substrate efflux assay that has previously been used in various studies. The interaction of CBZ, DCLB, OXC, TPM, and LEVI with BCRP was evaluated. Initially, hCMEC/D3 were seeded in 12‐well plates (cat. no. 150628, Nunc, Thermo Fisher Scientific, MA, USA) at 70‐80% confluency for 24 h. In this study, Ko143 was used for BCRP inhibition. The cultured cells were incubated at 37°C for half an hour in media containing BPZ with either the test ASMs or Ko143. Cells were washed with chilled 1X PBS three times and again incubated at 37°C for 1 h 30 min in BPZ‐free media with or without Ko143. Cells were washed three times with ice‐cold 1X PBS to terminate the assay. Cell lysis was performed by adding 1% triton X‐100, followed by incubating the cells for 15 min at 37°C. 20 µl of cell lysate was placed in 384‐well black assay plates for fluorescence detection (excitation at 488 nm; emission at 530 nm) to Infinite 200 PRO NanoQuant (Tecan, Zurich, Switzerland). The rest of the cell lysate was used for determining protein levels using the BCA protein estimation method to normalize the observed fluorescence intensity with total protein yield. The data were shown as a fold increment in intracellular fluorescence of BPZ relative to the control.

BCRP [2] = target: T1, BCRP; assay: bidirectional transport assay across hCMEC/D3 cell monolayer with or without Ko143; conditions: for transport by BCRP (conclusion of bidirectional transport assay): ER ≥ 1.5 and significantly reduced by Ko143; for efflux ratio at 2 h / Papp A→B at 2 h, 15 µM / Papp A→B at 2 h, 60 µM / Papp B→A at 2 h, 15 µM / Papp B→A at 2 h, 60 µM / efflux ratio at 2 h, 15 µM / efflux ratio at 2 h, 60 µM: human; for efflux ratio at 2 h: pH 7.4, Efflux ratio (ER) without inhibitor
Protocol: For transport assays, hCMEC/D3 cells were seeded on collagen type I‐coated Transwell inserts (polycarbonate 12‐well, pore size […]) (cat. no. CLS3460; Corning, NY, USA) at 80% confluency and cultured as described in section 2.5. In brief, the drug was dissolved in Hanks’ balanced salt solution supplemented with 10 mM HEPES, 1 mM Na‐Pyruvate, pH 7.4 at 37°C (transport buffer). Initially, both sides of the chamber were washed with 1X PBS and the assay was performed with pre‐warmed transport buffer. 0.5 ml or 1.5 ml of the drug solution, with or without BCRP‐specific inhibitor Ko143 (1 μM) was added to either the apical side or basolateral side of the monolayer, respectively, and fresh transport buffer was added to the opposite side. Aliquots of 100 μl samples were taken from the opposite sides every 30 min for 2 h, and the same amount of fresh transport buffer was added to the same chamber after each sampling. […] Concentrations of ASMs were evaluated by HPLC or LC/MS. Apparent permeability (Papp) is defined as the transport rate of ASM and efflux ratio (ER) was calculated as the ratio of Papp in the basolateral‐to‐apical (Papp(B→A)) direction to the Papp in the apical‐to‐basolateral (Papp(A→B)) direction. The samples were stored at −20°C until analysis. […] Fluorescence detection of lucifer yellow (excitation at 430 nm, and emission at 535 nm) was carried out with Infinite 200 PRO NanoQuant (Tecan, Zurich, Switzerland). […] All transport assays were performed in triplicate.
The calculation for apparent permeability coefficient, Papp, was performed as described before. Papp=dQr/dt/A×C0 where dQr/dt is the cumulative amount in the receiver side vs time in μM/s
A is the area of the cell monolayer
C0 is the initial concentration of the dosing solution (μM).
And, Efflux ratio=Papp(B−to−A)/Papp(A−to−B)

[3] = design: method as in Johannessen, 2004; Patsalos, 2008; Lee, 2016; conditions: patients with epilepsy; ref Johannessen, 2004; Patsalos, 2008; Lee, 2016; cited from earlier work
BCRP [4] = target: T1, BCRP; design: host or cells: MCF-7 cells overexpressing BCRP; conditions: previous study; cited from earlier work
BCRP [5] = target: T1, BCRP; assay: vanadate-sensitive BCRP ATPase assay (membrane vesicles from MCF-7 cells overexpressing BCRP); format: biochemical; design: host or cells: MCF-7 cells overexpressing BCRP; conditions: […] µM
Protocol: To assess the interaction between ASMs and BCRP, a vanadate‐sensitive ATPase assay was performed as per the manufacturer's instructions manual. […] After 10 min, 1x developer solution was added and kept for 2 min. To stop the reaction, 100 µL blocker solution was added and incubated for 30 min. at 37°C. The optical densities were measured at 620 nm using an Infinite 200 PRO NanoQuant (Tecan, Zurich, Switzerland) plate reader. 1 μM Ko143 was used as a positive control for BCRP inhibition. Ko143 was used at a concentration that is known to inhibit BCRP efficiently. The results were expressed as vanadate‐sensitive ATPase activity that is based on the difference in inorganic phosphate released between samples with and without vanadate. This will evaluate the ability of the test ASM to stimulate BCRP's baseline ATPase activity.

[6] = at all the tested concentrations, hCMEC/D3 monolayer
[7] = 5 μM, hCMEC/D3 monolayer, 1 μM Ko143
[8] = 10 μM, hCMEC/D3 monolayer, 1 μM Ko143

CC[C@@H](C(N)=O)N1CCCC1=O [LEVI, levetiracetam]
intracellular accumulation of BPZ in hCMEC/D3 cells (BCRP [1]): did not affect | transport by BCRP (conclusion of bidirectional transport assay) (BCRP [2]; hCMEC/D3 monolayer): not | directional transport (BCRP [2]; hCMEC/D3 monolayer, data not shown): did not show any directional transport | efflux ratio at 2 h (BCRP [2]; [6]): < 1.5 | Therapeutic plasma concentration range [3]: 35 to 120 µM | stimulation of BCRP ATPase activity (BCRP [4]): no significant stimulation

CC1(C)O[C@@H]2[C@@H](CO[C@@]3(COS(N)(=O)=O)OC(C)(C)O[C@@H]23)O1 [TPM, topiramate]
intracellular accumulation of BPZ in hCMEC/D3 cells (BCRP [1]): did not affect | transport by BCRP (conclusion of bidirectional transport assay) (BCRP [2]; hCMEC/D3 monolayer): not | Papp A→B at 2 h, 15 µM (BCRP [2]; pH 7.4): 0.71 ×10⁻⁶ cm/s | Papp A→B at 2 h, 60 µM (BCRP [2]; pH 7.4): 20 ×10⁻⁶ cm/s | Papp B→A at 2 h, 15 µM (BCRP [2]; pH 7.4): 0.71 ×10⁻⁶ cm/s | Papp B→A at 2 h, 60 µM (BCRP [2]; pH 7.4): 25.5 ×10⁻⁶ cm/s | efflux ratio at 2 h (BCRP [2]; [6]): < 1.5 | efflux ratio at 2 h, 15 µM (BCRP [2]; pH 7.4, Efflux ratio (ER), hCMEC/D3 without inhibitor Ko143, 15 μM, hCMEC/D3 monolayer): 1.06 | efflux ratio at 2 h, 60 µM (BCRP [2]; pH 7.4, Efflux ratio (ER), hCMEC/D3 without inhibitor Ko143, 60 μM, hCMEC/D3 monolayer): 1.17 | Papp A→B at 2 h, 15 µM (BCRP [2]; pH 7.4, with Ko143 1 μM): 12.3 ×10⁻⁶ cm/s | Papp A→B at 2 h, 60 µM (BCRP [2]; pH 7.4, with Ko143 1 μM): 159 ×10⁻⁶ cm/s | Papp B→A at 2 h, 15 µM (BCRP [2]; pH 7.4, with Ko143 1 μM): 14.2 ×10⁻⁶ cm/s | Papp B→A at 2 h, 60 µM (BCRP [2]; pH 7.4, with Ko143 1 μM): 190 ×10⁻⁶ cm/s | efflux ratio at 2 h, 15 µM (BCRP [2]; pH 7.4, with Ko143 1 µM, Efflux ratio (ER), hCMEC/D3 with inhibitor Ko143, 15 μM, hCMEC/D3 monolayer, 1 μM Ko143): 1.16 | efflux ratio at 2 h, 60 µM (BCRP [2]; pH 7.4, with Ko143 1 µM, Efflux ratio (ER), hCMEC/D3 with inhibitor Ko143, 60 μM, hCMEC/D3 monolayer, 1 μM Ko143): 1.13 | Therapeutic plasma concentration range [3]: 15 to 60 µM | stimulation of BCRP ATPase activity (BCRP [4]): no significant stimulation

O=C1CC(=O)N(c2ccccc2)c2cc(Cl)ccc2N1 [DCLB, N‐desmethyl clobazam]
BPZ accumulation in hCMEC/D3 cells (BCRP [1]; 1 and 10 µM): significantly increased | Efflux ratio (ER), hCMEC/D3 without inhibitor Ko143 (BCRP [2]; 5 μM, hCMEC/D3 monolayer): 2 | Papp A-->B, hCMEC/D3 without inhibitor Ko143 (BCRP [2]; 5 μM, hCMEC/D3 monolayer): 2.83 ×10⁻⁶ cm/s | Papp B-->A, hCMEC/D3 without inhibitor Ko143 (BCRP [2]; 5 μM, hCMEC/D3 monolayer): 5.66 ×10⁻⁶ cm/s | Efflux ratio (ER), hCMEC/D3 with inhibitor Ko143 (BCRP [2]; [7]): ~1 | Papp A-->B, hCMEC/D3 with inhibitor Ko143 (BCRP [2]; [7]): 5.66 ×10⁻⁶ cm/s | Papp B-->A, hCMEC/D3 with inhibitor Ko143 (BCRP [2]; [7]): 5.66 ×10⁻⁶ cm/s | Efflux ratio (ER), hCMEC/D3 without inhibitor Ko143 (BCRP [2]; 5 μM, hCMEC/D3 monolayer, listed as N‐desmethyl clobazam): 2.0 | Efflux ratio (ER), hCMEC/D3 without inhibitor Ko143 (BCRP [2]; 10 μM, hCMEC/D3 monolayer): 2 | Papp A-->B, hCMEC/D3 without inhibitor Ko143 (BCRP [2]; 10 μM, hCMEC/D3 monolayer): 2.83 ×10⁻⁶ cm/s | Papp B-->A, hCMEC/D3 without inhibitor Ko143 (BCRP [2]; 10 μM, hCMEC/D3 monolayer): 5.66 ×10⁻⁶ cm/s | Efflux ratio (ER), hCMEC/D3 with inhibitor Ko143 (BCRP [2]; [8]): ~1 | Papp A-->B, hCMEC/D3 with inhibitor Ko143 (BCRP [2]; [8]): 2.83 ×10⁻⁶ cm/s | Papp B-->A, hCMEC/D3 with inhibitor Ko143 (BCRP [2]; [8]): 2.83 ×10⁻⁶ cm/s | Efflux ratio (ER), hCMEC/D3 without inhibitor Ko143 (BCRP [2]; 10 μM, hCMEC/D3 monolayer, listed as N‐desmethyl clobazam): 2.0 | Efflux ratio (ER) without inhibitor (BCRP [2]; [6]): above 1.5 | Efflux ratio (ER) in the presence of Ko143 (BCRP [2]; at all the tested concentrations, hCMEC/D3 monolayer, 1 μM Ko143): ~1 | transport by BCRP (conclusion of bidirectional transport assay) (BCRP [2]; hCMEC/D3 monolayer): transports | Therapeutic plasma concentration range [3]: 1 to 10 µM | stimulation of BCRP ATPase activity (activation assay) (BCRP [5]): significantly stimulated
